In US4757087A, “Carbacyclin derivatives” (Sankyo Company Limited, priority 1985, dated 1988):

Assays:
[1] = tested on: aspirin-induced ulcer; assay: Effect on aspirin-induced ulcer (Brodie and Chase method); type: in vivo, rats of the Donryu strain (male); settings: orally, rats, 15 min before 100 mg/kg aspirin, 4 h after aspirin
Method: According to a method reported by Brodie and Chase [Gastroenterology 53, 604 (1967)], the anti-ulcer effect was determined. Five male rats of the Donryu strain (body weight 170 to 200 g) were used for each of the control and test compound groups. After being fasted for 24 hours, the rats were orally given certain concentrations of the test compounds and 15 minutes later given orally 100 mg/kg of aspirin (Sanko Pharmaceutical Inc). Four hours after the aspirin administration, the stomach was extracted and expanded with 10 ml of 0.5% formalin. An ulcer index was calculated from the total area of ulceration for the rats of the treated and control groups. The inhibition rate was calculated by comparing the ulcer indices of both groups.

[2] = Acute toxicity testing, intravenous; type: in vivo; settings: intravenously, 10 mg per kg of body weight, five rats
[3] = tested on: blood platelet aggregation; settings: GB 2012265A, U.S. Pat. No. 4,238,414; cited from earlier work
[4] = GB 2012265A, U.S. Pat. No. 4,238,414; cited from earlier work

| Structure (SMILES) | Inhibition Rate (%) ([1]; 30 γ/kg (γ = 10^-6 g)) | Inhibition Rate (%) ([1]; 100 γ/kg (γ = 10^-6 g)) | also measured |
| --- | --- | --- | --- |
| CC(C)=CCCC(C)C[C@H](O)/C=C/[C@@H]1[C@H]2C/C(=C/CCCC(=O)O)C[C@H]2C[C@H]1O (stereo partly drawn) [Reference Compound D, 17-Methyl-20-isopropylidenecarbacyclin] | 30 | 98 |  |
| CCC=CC[C@H](O)/C=C/[C@@H]1[C@H]2C/C(=C/CCCC(=O)O)C[C@H]2C[C@H]1O [Reference Compound B, 17,18-Didehydrocarbacyclin] | 15 | 47 |  |
| C=CCCCC(C)[C@H](O)/C=C/[C@@H]1[C@H]2C/C(=C/CCCC(=O)O)C[C@H]2C[C@H]1O (stereo partly drawn) [Preparative Example 1, 16-Methyl-20-methylenecarbacyclin] | 95 | 98 | Inhibition Rate (%) ([1]; 10 γ/kg (γ = 10^-6 g)): 45%; deaths (acute toxicity) [2]: no deaths occurred |
| CCCCC[C@H](O)/C=C/[C@@H]1[C@H]2C/C(=C/CCCC(=O)O)C[C@H]2C[C@H]1O [Reference Compound A, Carbacyclin] |  | 0 | Inhibition Rate (%) ([1]; 300 γ/kg (γ = 10^-6 g)): 0%; inhibition of blood platelet aggregation [3]: inhibition of blood platelet aggregation; chemical stability [4]: chemically stable |
| CC(C)=CCCCC(C)[C@H](O)/C=C/[C@@H]1[C@H]2C/C(=C/CCCC(=O)O)C[C@H]2C[C@H]1O (stereo partly drawn) [Preparative Example 6, 16-Methyl-20-isopropylidenecarbacyclin] | 84 |  |  |
| CC(C)=CCCCC[C@H](O)/C=C/[C@@H]1[C@H]2C/C(=C/CCCC(=O)O)C[C@H]2C[C@H]1O [Reference Compound C, 20-Isopropylidenecarbacyclin] |  |  | Inhibition Rate (%) ([1]; 300 γ/kg (γ = 10^-6 g)): 4% |
| C=CCCCC(C)(C)[C@H](O)/C=C/[C@@H]1[C@H]2C/C(=C/CCCC(=O)O)C[C@H]2C[C@H]1O [Preparative Example 3, 16,16-Dimethyl-20-methylenecarbacyclin] | 92 |  |  |
